Measurements from patent publication US9018388B2, “Pesticidal compositions and processes related thereto” (Dow AgroSciences LLC, priority 2012, dated 2015).

Assays:
[1] = test system: Corn Earworm (CEW) (Helicoverpa zea); test: Bioassay on corn earworm (CEW), 128-well diet tray assay; format: in vivo; conditions: Helicoverpa zea; Corn earworm, 50 μg/cm^2; read-out: % Mortality CEW 50 μg/cm^2
Method: (§1) Bioassays on Beet Armyworm (“BAW”) and Corn Earworm (“CEW”)
(§2) Certain molecules disclosed in this document were tested against BAW and CEW using procedures described in the following examples. In the reporting of the results, the “BAW & CEW Rating Table” was used (See Table Section).
Bioassays on CEW (Helicoverpa zea)
Bioassays on CEW were conducted using a 128-well diet tray assay. One to five second instar CEW larvae were placed in each well (3 mL) of the diet tray that had been previously filled with 1 mL of artificial diet to which 50 μg/cm^2 of the test compound (dissolved in 50 μL of 90:10 acetone-water mixture) had been applied (to each of eight wells) and then allowed to dry. Trays were covered with a clear self-adhesive cover and held at 25° C., 14:10 light-dark for five to seven days. Percent mortality was recorded for the larvae in each well; activity in the eight wells was then averaged. The results are indicated in the table entitled “Table 5: Biological Results” (See Table Section).

[2] = test system: Beet Armyworm (BAW) (Spodoptera exigua); test: Bioassay on beet armyworm (BAW), 128-well diet tray assay; format: in vivo; conditions: Spodoptera exigua; Beet armyworm, 50 μg/cm^2; read-out: % Mortality BAW 50 μg/cm^2
Method: as §1, §2
Bioassays on BAW (Spodoptera exigua)
Bioassays on BAW were conducted using a 128-well diet tray assay. One to five second instar BAW larvae were placed in each well (3 mL) of the diet tray that had been previously filled with 1 mL of artificial diet to which 50 μg/cm^2 of the test compound (dissolved in 50 μL of 90:10 acetone-water mixture) had been applied (to each of eight wells) and then allowed to dry. Trays were covered with a clear self-adhesive cover and held at 25° C., 14:10 light-dark for five to seven days. Percent mortality was recorded for the larvae in each well; activity in the eight wells was then averaged. The results are indicated in the table entitled “Table 5: Biological Results” (See Table Section).

SMILES | pest or weed control at 50 µg/cm2, 50 µg/cm2 [1] [%] | pest or weed control at 50 µg/cm2, 50 µg/cm2 [2] [%]
Cc1ccccc1N1CCS/C1=N\N=C\c1ccc(-c2ncn(-c3ccc(OC(F)(F)F)cc3)n2)cc1 [Compound 141C] | 50 to 100 | 50 to 100
Fc1cccc(Cl)c1N1CCS/C1=N\N=C\c1ccc(-c2ncn(-c3ccc(OC(F)(F)F)cc3)n2)cc1 [Compound 143C] | 50 to 100 | 50 to 100
FC(F)(F)Oc1ccc(-n2cnc(-c3ccc(/C=N/N=C4\SCCN4c4ccccc4-c4ccccc4)cc3)n2)cc1 [Compound 144C] | 50 to 100 | 50 to 100
Fc1cccc(F)c1N1CCS/C1=N\N=C\c1ccc(-c2ncn(-c3ccc(OC(F)(F)F)cc3)n2)cc1 [Compound 148C] | 50 to 100 | 50 to 100
FC(F)(F)Oc1ccc(-n2cnc(-c3ccc(/C=N/N=C4\SCCN4c4c(Cl)cccc4C(F)(F)F)cc3)n2)cc1 [Compound 149C] | 50 to 100 | 50 to 100
CC(C)Cc1ccccc1N1CCS/C1=N\N=C\c1ccc(-c2ncn(-c3ccc(OC(F)(F)F)cc3)n2)cc1 [Compound 150C] | 50 to 100 | 50 to 100
FC(F)Oc1ccccc1N1CCS/C1=N\N=C\c1ccc(-c2ncn(-c3ccc(OC(F)(F)F)cc3)n2)cc1 [Compound 152C] | 50 to 100 | 50 to 100
CC1CS/C(=N\N=C\c2ccc(-c3ncn(-c4ccc(OC(F)(F)F)cc4)n3)cc2)N1c1c(F)cccc1F (stereo not drawn) [Compound 159C] | 50 to 100 | 50 to 100
CC1CS/C(=N\N=C\c2ccc(-c3ncn(-c4ccc(OC(F)(F)F)cc4)n3)cc2)N1c1c(Cl)cccc1C(F)(F)F (stereo not drawn) [Compound 160C] | 50 to 100 | 50 to 100
Cc1cc(C)c(N2/C(=N/N=C/c3ccc(-c4ncn(-c5ccc(OC(F)(F)F)cc5)n4)cc3)SCC2C)c(C)c1 (stereo not drawn) [Compound 161C] | 50 to 100 | 50 to 100
COc1ccc(N2/C(=N/N=C/c3ccc(-c4ncn(-c5ccc(OC(F)(F)F)cc5)n4)cc3)SCC2C)c(C)c1 (stereo not drawn) [Compound 162C] | 50 to 100 | 50 to 100
CCC(C)c1ccccc1N1/C(=N/N=C/c2ccc(-c3ncn(-c4ccc(OC(F)(F)F)cc4)n3)cc2)SCC1C (stereo not drawn) [Compound 163C] | 50 to 100 | 50 to 100
CC1CS/C(=N\N=C\c2ccc(-c3ncn(-c4ccc(OC(F)(F)F)cc4)n3)cc2)N1c1ccccc1OC(F)F (stereo not drawn) [Compound 164C] | 50 to 100 | 50 to 100
CC1CS/C(=N\N=C\c2ccc(-c3ncn(-c4ccc(OC(F)(F)F)cc4)n3)cc2)N1c1ccccc1C(C)(C)C (stereo not drawn) [Compound 165C] | 50 to 100 | 50 to 100
CCC1CS/C(=N\N=C\c2ccc(-c3ncn(-c4ccc(OC(F)(F)F)cc4)n3)cc2)N1c1ccccc1C (stereo not drawn) [Compound 166C] | 50 to 100 | 50 to 100
CCC1CS/C(=N\N=C\c2ccc(-c3ncn(-c4ccc(OC(F)(F)F)cc4)n3)cc2)N1c1c(C)cccc1Cl (stereo not drawn) [Compound 167C] | 50 to 100 | 50 to 100
CC1CS/C(=N\N=C\c2ccc(-c3ncn(-c4ccc(OC(F)(F)F)cc4)n3)cc2)N1c1ccccc1OC(F)(F)F (stereo not drawn) [Compound 168C] | 50 to 100 | 50 to 100
Cc1cs/c(=N\N=C\c2ccc(-c3ncn(-c4ccc(OC(F)(F)F)cc4)n3)cc2)n1-c1c(Cl)cccc1C(F)(F)F [Compound 169C] | 50 to 100 | 50 to 100
Cc1cs/c(=N\N=C\c2ccc(-c3ncn(-c4ccc(OC(F)(F)F)cc4)n3)cc2)n1-c1ccccc1OC(F)(F)F [Compound 170C] | 50 to 100 | 50 to 100
Cc1cs/c(=N\N=C\c2ccc(-c3ncn(-c4ccc(OC(F)(F)F)cc4)n3)cc2)n1-c1c(F)cccc1F [Compound 171C] | 50 to 100 | 50 to 100
COc1cc(C)c(-n2c(C)cs/c2=N\N=C\c2ccc(-c3ncn(-c4ccc(OC(F)(F)F)cc4)n3)cc2)c(C)c1 [Compound 172C] | 50 to 100 | 50 to 100

SMILES | pest or weed control at 50 µg/cm2, 50 µg/cm2 [1] [%] | pest or weed control at 50 µg/cm2, 50 µg/cm2 [2] [%]
Cc1cccc(C)c1-n1c(C)cs/c1=N\N=C\c1ccc(-c2ncn(-c3ccc(OC(F)(F)F)cc3)n2)cc1 [Compound 175C] | 50 to 100 | 50 to 100
Cc1cs/c(=N\N=C\c2ccc(-c3ncn(-c4ccc(OC(F)(F)F)cc4)n3)cc2)n1-c1ccccc1C(C)C [Compound 176C] | 50 to 100 | 50 to 100
CC(C)c1ccccc1N1CCCS/C1=N\N=C\c1ccc(-c2ncn(-c3ccc(OC(F)(F)F)cc3)n2)cc1 [Compound 177C] | 50 to 100 | 50 to 100
CC(C)c1ccccc1N1CCCS/C1=N\N=C\c1ccc(-c2ncn(-c3ccc(C(F)(F)F)cc3)n2)cc1 [Compound 179C] | 50 to 100 | 50 to 100
CCC(C)c1ccccc1N1CCCS/C1=N\N=C\c1ccc(-c2ncn(-c3ccc(OC(F)(F)F)cc3)n2)cc1 (stereo not drawn) [Compound 183C] | 50 to 100 | 50 to 100
Cc1cc(C)c(N2CCCS/C2=N\N=C\c2ccc(-c3ncn(-c4ccc(OC(F)(F)F)cc4)n3)cc2)c(C)c1 [Compound 184C] | 50 to 100 | 50 to 100
CCc1ccccc1N1CCCS/C1=N\N=C\c1ccc(-c2ncn(-c3ccc(OC(F)(F)F)cc3)n2)cc1 [Compound 185C] | 50 to 100 | 50 to 100
FC(F)(F)Oc1ccc(-n2cnc(-c3ccc(/C=N/N=C4\SCCCN4c4c(Cl)cccc4Cl)cc3)n2)cc1 [Compound 187C] | 50 to 100 | 50 to 100
COc1ccccc1N1CCCS/C1=N\N=C\c1ccc(-c2ncn(-c3ccc(OC(F)(F)F)cc3)n2)cc1 [Compound 191C] | 50 to 100 | 50 to 100
Cc1cccc(Cl)c1N1CCCS/C1=N\N=C\c1ccc(-c2ncn(-c3ccc(OC(F)(F)F)cc3)n2)cc1 [Compound 196C] | 50 to 100 | 50 to 100
CC(C)=Cc1ccccc1N1CCCS/C1=N\N=C\c1ccc(-c2ncn(-c3ccc(OC(F)(F)F)cc3)n2)cc1 [Compound 197C] | 50 to 100 | 50 to 100
Cc1cccnc1N1CCCS/C1=N\N=C\c1ccc(-c2ncn(-c3ccc(OC(F)(F)F)cc3)n2)cc1 [Compound 198C] | 50 to 100 | 50 to 100
FC(F)(F)Oc1ccc(-n2cnc(-c3ccc(/C=N/N=C4\SCCCN4c4ccccc4OC(F)(F)F)cc3)n2)cc1 [Compound 199C] | 50 to 100 | 50 to 100
FC(F)Oc1ccccc1N1CCCS/C1=N\N=C\c1ccc(-c2ncn(-c3ccc(OC(F)(F)F)cc3)n2)cc1 [Compound 200C] | 50 to 100 | 50 to 100
COc1cccc(N2CCCS/C2=N\N=C\c2ccc(-c3ncn(-c4ccc(OC(F)(F)F)cc4)n3)cc2)c1 [Compound 206C] | 50 to 100 | 50 to 100
CCOc1ccccc1N1CCCS/C1=N\N=C\c1ccc(-c2ncn(-c3ccc(OC(F)(F)F)cc3)n2)cc1 [Compound 208C] | 50 to 100 | 50 to 100
CC(C)(C)c1ccccc1N1CCCS/C1=N\N=C\c1ccc(-c2ncn(-c3ccc(OC(F)(F)F)cc3)n2)cc1 [Compound 210C] | 50 to 100 | 50 to 100
Cc1cccc(C)c1N1CCCCS/C1=N\N=C\c1ccc(-c2ncn(-c3ccc(OC(F)(F)F)cc3)n2)cc1 [Compound 211C] | 50 to 100 | 50 to 100
CC(C)c1ccccc1N1CCCCS/C1=N\N=C\c1ccc(-c2ncn(-c3ccc(OC(F)(F)F)cc3)n2)cc1 [Compound 212C] | 50 to 100 | 50 to 100
CC1CS/C(=N\N=C\c2ccc(-c3ncn(-c4ccc(OC(F)(F)F)cc4)n3)cc2)N(c2ccccc2OC(F)(F)F)C1 (stereo not drawn) [Compound 214C] | 50 to 100 | 50 to 100
CC1CS/C(=N\N=C\c2ccc(-c3ncn(-c4ccc(OC(F)(F)F)cc4)n3)cc2)N(c2c(Cl)cccc2C(F)(F)F)C1 (stereo not drawn) [Compound 215C] | 50 to 100 | 50 to 100
